# Laboratory results published in patent publication US20220088024A1, “METHODS FOR TREATING CANCER USING TOZADENANT” (Biotie Therapies, Inc., priority 2018, published 2022).
# Where two headings read alike, the source gives them in different places.
# Key:
# [1] = Example 13: calculation of predicted human dose from mouse and human PK; settings: for AUC: mouse, plasma
# Experimental: Using the PK data above in mice and humans, a human efficacious dose was estimated by identifying a dose in humans that would result in plasma exposures similar to the efficacious dose in the oncology models in mice. The 100 mg/kg/day dose studied for PK in mice and the 180 mg dose studied for PK in humans were the relevant doses used in this estimation.
# This predicted human efficacious dose for tozadenant for treating cancer based on the measured PK data can be contrasted to the predicted dose that would be calculated by the less informed but standard approach of using body surface area comparisons between mice and humans, whereby the equivalent dose in humans would be calculated by dividing the dose in mice by 12.3 (see, e.g., Nair A B, Jacob S. A simple practice guide for dose conversion between animals and human. J Basic Clin Pharma 2016;7:27-31). This approach would result in a predicted efficacious dose of 0.24 mg/kg in humans, which is equivalent to approximately 17 mg in a typical 70 kg human. Thus, this prediction using the standard method results in a targeted human dose more than an order of magnitude higher than the one informed by PK.
# [2] = Example 11: plasma pharmacokinetics (toxicokinetics) of tozadenant in mice after twice daily oral administration; format: in vivo, Crl:CD1(ICR) mice; design: Cmax/D / AUC0-24/D: unit not given beside the values; settings: for AUC(0-t) / AUC / Cmax / Tmax: Crl:CD1(ICR), mouse, plasma; for Cmax: read-out: Cmax
# Experimental: The plasma pharmacokinetics and exposure levels of tozadendant have been documented in mice after oral administration, the same route of administration as tozadenant was dosed in the oncology efficacy studies.
# The PK of tozadenant in mice was compared across a range of doses and dose frequencies. […]
# Groups of mice of the Crl:CD1(ICR) strain were dosed, as follows:
# The vehicle for the tozadenant in this mouse PK study was 1.6% (w/v) Avicel RC-591 (FMC), 0.2% (v/v) Tween 80, 0.18% (w/v) methylparaben and 0.02% (w/v) propylparaben in reverse osmosis water, pH 6.0±0.3. The 1.6% (w/v) Avicel RC-591 (FMC) was supplied by Biopolymer International, Brussels, Belgium. The 0.2% (v/v) Tween 80, 0.18% (w/v) methylparaben and 0.02% (w/v) propylparaben in reverse osmosis water, pH 6.0±0.3 was supplied by and Sigma-Aldrich Co Ltd, Poole, UK. This is the same formulation used for the mouse oncology model oral dosing.
# The test article was administered orally by gavage, as follows:
# Groups 1 to 4: Twice for one day (0 and 8 hours apart relative to initial dose)
# Group 5: Twice for one day (0 and 12 hours apart relative to initial dose)
# Blood samples for toxicokinetics (0.25 mL nominal) were taken from all toxicokinetic animals (subgroup 2), as follows:
# For animals dosed at 0, 8 or 12 hour intervals, sampling time with respect to dose was symmetrical in each animal, for example, if an animal was sampled 0.5 hours after the first dose, it was sampled 0.5 hours after the second dose. The second sample obtained from each animal was collected under terminal anaesthesia.
# Samples were taken from the orbital sinus (with the exception of Group 3 animals at the 10 hour bleed, which were taken by cardiac puncture) under isoflurane anaesthesia into K2EDTA. Samples were gently inverted to ensure mixing with anticoagulant, placed on a blood roller for at least one minute and then placed in a Kryorack until centrifugation.
# Centrifugation was carried out at approximately 4-8° C. within one hour of collection. The resultant plasma from all samples was separated, transferred to uniquely labelled clear polypropylene tubes and frozen immediately at approximately <−10 to −30° C. Samples were analyzed at Covance.
# Tozadenant was quantitated using protein precipitation followed by liquid chromatography mass spectrometry technique for quantification. This bioanalytical method was previously established and validated for tozadenant in mouse plasma.
# [3] = Group 1, Male, 100 mg/kg/day (50 mg/kg/dose), oral, dosing at 0, 8 hr
# [4] = Group 2, Male, 300 mg/kg/day (150 mg/kg/dose), oral, dosing at 0, 8 hr
# [5] = Group 3, Male, 1000 mg/kg/day (500 mg/kg/dose), oral, dosing at 0, 8 hr
# [6] = Group 4, 2000 mg/kg/day, dosing at 0, 8 hr
# [7] = Group 4, Female, 2000 mg/kg/day (1000 mg/kg/dose), oral, dosing at 0, 8 hr
# [8] = Group 4, Male, 2000 mg/kg/day (1000 mg/kg/dose), oral, dosing at 0, 8 hr
# [9] = Group 5, 2000 mg/kg/day, dosing at 0, 12 hr
# [10] = Group 5, Female, 2000 mg/kg/day (1000 mg/kg/dose), oral, dosing at 0, 12 hr
# [11] = Group 5, Male, 2000 mg/kg/day (1000 mg/kg/dose), oral, dosing at 0, 12 hr
smiles,measurement,setting,value
"COc1ccc(N2CCOCC2)c2sc(NC(=O)N3CCC(C)(O)CC3)nc12 [SYN-115, 4-hydroxy-4-methyl-piperidine-1-carboxylic acid (4-methoxy-7-morpholin-4-yl-benzothiazol-2-yl)-amide]",AUC,"[1]; oral, mice, 3 mg/kg efficacious dose, read-out: Point estimate AUC (linear extrapolation)",~106 ng·h/mL
same,AUC,"[1]; 2 mg/kg dose in mice, read-out: Target AUC in humans",71 ng·h/mL
same,Predicted human dose achieving target AUC,[1]; target AUC of 71 hr*ng/mL (2 mg/kg mouse dose),approximately 0.6 mg
same,Predicted human dose achieving target AUC,[1]; target AUC of 106 hr*ng/mL (3 mg/kg mouse dose),approximately 0.9 mg
same,AUC0-24/D,[2]; [3],35.2
same,Cmax/D,[2]; [3],7.64
same,AUC0-24/D,[2]; [4],33.0
same,Cmax/D,[2]; [4],5.73
same,AUC0-24/D,[2]; [5],29.9
same,Cmax/D,[2]; [5],3.61
same,Female:Male Ratio AUC0-24,[2]; [6],2.70
same,Female:Male Ratio Cmax,[2]; [6],2.38
same,AUC0-24/D,[2]; [7],58.0
same,Cmax/D,[2]; [7],6.05
same,AUC0-24/D,[2]; [8],21.5
same,Cmax/D,[2]; [8],2.54
same,Female:Male Ratio AUC0-24,[2]; [9],2.02
same,Female:Male Ratio Cmax,[2]; [9],1.28
same,AUC0-24/D,[2]; [10],31.4
same,Cmax/D,[2]; [10],4.12
same,AUC0-24/D,[2]; [11],15.6
same,Cmax/D,[2]; [11],3.22
same,AUC(0-t),"[2]; female, po, 2000 mg/kg/day, Group 4, Female, 2000 mg/kg/day (1000 mg/kg/dose), oral, dosing at 0, 8 hr, read-out: AUC0-8",35400 ng·h/mL
same,AUC(0-t),"[2]; female, po, 2000 mg/kg/day, Group 4, Female, 2000 mg/kg/day (1000 mg/kg/dose), oral, dosing at 0, 8 hr, read-out: AUC0-24",116000 ng·h/mL
same,AUC,"[2]; female, po, 2000 mg/kg/day, Group 4, Female, 2000 mg/kg/day (1000 mg/kg/dose), oral, dosing at 0, 8 hr, read-out: AUC8-24",80600 ng·h/mL
same,Cmax,"[2]; female, po, 2000 mg/kg/day, Group 4, Female, 2000 mg/kg/day (1000 mg/kg/dose), oral, dosing at 0, 8 hr",12100 ng/mL
same,Tmax,"[2]; female, po, 2000 mg/kg/day, Group 4, Female, 2000 mg/kg/day (1000 mg/kg/dose), oral, dosing at 0, 8 hr, read-out: Tmax",14 h
same,AUC(0-t),"[2]; female, po, 2000 mg/kg/day, Group 5, Female, 2000 mg/kg/day (1000 mg/kg/dose), oral, dosing at 0, 12 hr, read-out: AUC0-12",35500 ng·h/mL
same,AUC(0-t),"[2]; female, po, 2000 mg/kg/day, Group 5, Female, 2000 mg/kg/day (1000 mg/kg/dose), oral, dosing at 0, 12 hr, read-out: AUC0-24",62700 ng·h/mL
same,AUC,"[2]; female, po, 2000 mg/kg/day, Group 5, Female, 2000 mg/kg/day (1000 mg/kg/dose), oral, dosing at 0, 12 hr, read-out: AUC12-24",27200 ng·h/mL
same,Cmax,"[2]; female, po, 2000 mg/kg/day, Group 5, Female, 2000 mg/kg/day (1000 mg/kg/dose), oral, dosing at 0, 12 hr",8240 ng/mL
same,Tmax,"[2]; female, po, 2000 mg/kg/day, Group 5, Female, 2000 mg/kg/day (1000 mg/kg/dose), oral, dosing at 0, 12 hr, read-out: Tmax",1.2 h
same,Tmax,"[2]; female, po, 2000 mg/kg/day, females, 0, 12 hour dosing, read-out: Tmax (following the first dose)",1.2 h
same,Tmax,"[2]; female, po, 2000 mg/kg/day, females, 2000 mg/kg/day, 0, 8 hours dosing, read-out: Tmax (after the second dose)",6 h
same,AUC,"[2]; male, oral, 100 mg/kg/day, mice, 100 mg/kg/day, read-out: Average AUC",3520 ng·h/mL
same,AUC(0-t),"[2]; male, po, 100 mg/kg/day, Group 1, Male, 100 mg/kg/day (50 mg/kg/dose), oral, dosing at 0, 8 hr, read-out: AUC0-8",1950 ng·h/mL
